From ChEMBL document CHEMBL4414631 (J Med Chem, 2019)
Converted amounts (≈) assume the structure as drawn.

Experiments:
[1] = Solubility of compound by CLND method; format: physicochemical
[2] = target: Phosphatidylinositol 4,5-bisphosphate 3-kinase catalytic subunit gamma isoform (Homo sapiens, UniProt P48736)
Description: Inhibition of PI3Kgamma (unknown origin) using biotin-PIP3 as substrate preincubated for 15 mins followed by substrate addition and measured after 60 mins by fluorescence polarization assay

[3] = target: T1, Phosphatidylinositol 4,5-bisphosphate 3-kinase catalytic subunit delta isoform (Homo sapiens, UniProt O00329)
T1 sequence (O00329 whole entry): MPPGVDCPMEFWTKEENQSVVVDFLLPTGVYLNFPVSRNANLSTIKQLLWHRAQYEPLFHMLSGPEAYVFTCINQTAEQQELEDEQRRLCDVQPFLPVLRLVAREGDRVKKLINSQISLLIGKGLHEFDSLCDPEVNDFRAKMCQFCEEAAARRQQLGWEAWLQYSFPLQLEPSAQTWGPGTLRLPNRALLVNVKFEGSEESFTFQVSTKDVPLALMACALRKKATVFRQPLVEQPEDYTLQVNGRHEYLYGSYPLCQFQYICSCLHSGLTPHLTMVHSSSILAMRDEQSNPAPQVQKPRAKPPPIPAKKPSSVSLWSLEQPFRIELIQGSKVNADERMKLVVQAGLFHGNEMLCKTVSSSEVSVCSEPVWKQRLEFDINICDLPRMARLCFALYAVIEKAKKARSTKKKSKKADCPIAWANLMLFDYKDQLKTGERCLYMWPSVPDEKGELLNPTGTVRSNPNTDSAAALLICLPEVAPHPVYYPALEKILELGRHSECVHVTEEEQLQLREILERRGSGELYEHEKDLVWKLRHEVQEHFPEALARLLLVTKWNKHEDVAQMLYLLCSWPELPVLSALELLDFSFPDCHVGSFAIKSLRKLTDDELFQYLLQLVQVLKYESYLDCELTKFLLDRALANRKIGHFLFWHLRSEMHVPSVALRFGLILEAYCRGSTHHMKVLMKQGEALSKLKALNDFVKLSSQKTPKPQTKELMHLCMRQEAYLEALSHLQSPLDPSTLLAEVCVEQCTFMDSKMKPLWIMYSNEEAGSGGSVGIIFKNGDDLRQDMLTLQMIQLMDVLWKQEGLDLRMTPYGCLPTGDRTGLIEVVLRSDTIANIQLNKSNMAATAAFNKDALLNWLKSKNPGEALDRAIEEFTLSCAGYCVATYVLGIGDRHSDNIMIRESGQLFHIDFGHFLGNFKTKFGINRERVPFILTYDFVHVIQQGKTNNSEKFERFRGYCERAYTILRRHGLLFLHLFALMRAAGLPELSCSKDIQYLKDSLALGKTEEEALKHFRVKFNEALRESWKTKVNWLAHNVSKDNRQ
Description: Inhibition of PI3Kdelta (unknown origin) using biotin-PIP3 as substrate preincubated for 15 mins followed by substrate addition and measured after 60 mins by fluorescence polarization assay

[4] = target: Phosphatidylinositol 4,5-bisphosphate 3-kinase catalytic subunit beta isoform (Homo sapiens, UniProt P42338); assay: Inhibition of PI3Kbeta (unknown origin) using biotin-PIP3 as substrate preincubated for 15 mins followed by substrate addition and measured after 60 mins by fluorescence polarization assay
[5] = target: Albumin (Homo sapiens, UniProt P02768); assay: Binding affinity to human serum albumin by HPLC analysis; format: ADME; details: isolated protein
[6] = Lipophilicity, logD of compound at pH 7.4 by HPLC-MS analysis; details: buffer
[7] = target: Phosphatidylinositol 4,5-bisphosphate 3-kinase catalytic subunit alpha isoform (Homo sapiens, UniProt P42336)
Phosphatidylinositol 4,5-bisphosphate 3-kinase catalytic subunit alpha isoform, sequence (P42336 whole entry, canonical isoform): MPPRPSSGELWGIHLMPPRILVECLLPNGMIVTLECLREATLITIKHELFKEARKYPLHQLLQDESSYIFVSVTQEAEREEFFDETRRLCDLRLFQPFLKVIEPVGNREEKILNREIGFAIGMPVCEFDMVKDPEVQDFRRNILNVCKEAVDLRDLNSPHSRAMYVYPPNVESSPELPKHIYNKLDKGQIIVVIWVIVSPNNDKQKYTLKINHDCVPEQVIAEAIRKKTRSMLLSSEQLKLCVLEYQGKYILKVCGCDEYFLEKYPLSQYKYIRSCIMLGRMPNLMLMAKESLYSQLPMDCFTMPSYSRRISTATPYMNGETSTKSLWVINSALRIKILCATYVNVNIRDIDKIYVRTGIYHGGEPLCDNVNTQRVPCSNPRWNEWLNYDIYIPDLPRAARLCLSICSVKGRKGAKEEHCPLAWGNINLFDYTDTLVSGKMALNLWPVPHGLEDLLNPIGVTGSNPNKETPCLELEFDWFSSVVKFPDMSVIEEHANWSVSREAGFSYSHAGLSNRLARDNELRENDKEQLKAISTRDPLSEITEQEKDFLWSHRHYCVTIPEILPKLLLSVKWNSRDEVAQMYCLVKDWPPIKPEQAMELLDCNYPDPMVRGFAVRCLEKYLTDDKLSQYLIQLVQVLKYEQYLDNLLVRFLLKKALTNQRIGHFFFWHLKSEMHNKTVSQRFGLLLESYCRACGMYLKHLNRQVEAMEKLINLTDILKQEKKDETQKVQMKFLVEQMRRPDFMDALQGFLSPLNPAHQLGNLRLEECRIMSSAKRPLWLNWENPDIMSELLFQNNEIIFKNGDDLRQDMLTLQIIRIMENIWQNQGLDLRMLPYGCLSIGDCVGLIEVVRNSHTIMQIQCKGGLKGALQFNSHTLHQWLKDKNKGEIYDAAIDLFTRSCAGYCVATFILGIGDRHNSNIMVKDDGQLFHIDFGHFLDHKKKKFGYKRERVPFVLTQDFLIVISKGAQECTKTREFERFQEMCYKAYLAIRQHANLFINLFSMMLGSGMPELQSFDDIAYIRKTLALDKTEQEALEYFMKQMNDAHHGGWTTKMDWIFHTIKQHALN
Description: Inhibition of PI3Kalpha (unknown origin) using biotin-PIP3 as substrate preincubated for 15 mins followed by substrate addition and measured after 60 mins by fluorescence polarization assay

Phosphatidylinositol 4,5-bisphosphate 3-kinase catalytic subunit gamma isoform, sequence (P48736 whole entry, canonical isoform): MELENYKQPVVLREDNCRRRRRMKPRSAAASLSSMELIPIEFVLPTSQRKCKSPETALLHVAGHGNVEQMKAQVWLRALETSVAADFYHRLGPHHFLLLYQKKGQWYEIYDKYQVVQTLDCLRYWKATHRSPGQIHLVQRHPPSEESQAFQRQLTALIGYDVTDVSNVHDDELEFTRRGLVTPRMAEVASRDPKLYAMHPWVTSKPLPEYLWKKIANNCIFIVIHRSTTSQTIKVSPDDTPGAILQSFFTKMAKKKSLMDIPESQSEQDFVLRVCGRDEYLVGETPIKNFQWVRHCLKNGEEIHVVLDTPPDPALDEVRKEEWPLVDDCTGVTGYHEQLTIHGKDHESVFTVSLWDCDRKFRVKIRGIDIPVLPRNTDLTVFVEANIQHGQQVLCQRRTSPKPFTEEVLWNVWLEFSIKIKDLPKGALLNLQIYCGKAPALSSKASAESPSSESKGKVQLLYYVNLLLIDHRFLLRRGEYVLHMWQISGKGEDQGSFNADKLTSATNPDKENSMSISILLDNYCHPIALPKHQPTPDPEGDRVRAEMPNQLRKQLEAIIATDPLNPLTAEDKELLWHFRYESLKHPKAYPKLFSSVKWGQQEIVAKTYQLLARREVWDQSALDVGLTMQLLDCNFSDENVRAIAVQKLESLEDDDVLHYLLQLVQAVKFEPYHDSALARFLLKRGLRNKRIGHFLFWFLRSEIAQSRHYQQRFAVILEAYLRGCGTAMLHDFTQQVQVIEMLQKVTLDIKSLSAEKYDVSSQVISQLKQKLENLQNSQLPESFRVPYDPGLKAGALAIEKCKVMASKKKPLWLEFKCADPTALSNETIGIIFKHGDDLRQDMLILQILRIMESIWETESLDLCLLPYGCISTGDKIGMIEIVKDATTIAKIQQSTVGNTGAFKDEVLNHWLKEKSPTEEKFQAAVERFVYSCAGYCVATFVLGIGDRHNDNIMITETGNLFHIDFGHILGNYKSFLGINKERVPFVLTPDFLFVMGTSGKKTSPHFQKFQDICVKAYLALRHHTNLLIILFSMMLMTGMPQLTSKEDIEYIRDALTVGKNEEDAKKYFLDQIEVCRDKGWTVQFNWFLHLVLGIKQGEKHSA
Phosphatidylinositol 4,5-bisphosphate 3-kinase catalytic subunit beta isoform, sequence (P42338 whole entry, canonical isoform): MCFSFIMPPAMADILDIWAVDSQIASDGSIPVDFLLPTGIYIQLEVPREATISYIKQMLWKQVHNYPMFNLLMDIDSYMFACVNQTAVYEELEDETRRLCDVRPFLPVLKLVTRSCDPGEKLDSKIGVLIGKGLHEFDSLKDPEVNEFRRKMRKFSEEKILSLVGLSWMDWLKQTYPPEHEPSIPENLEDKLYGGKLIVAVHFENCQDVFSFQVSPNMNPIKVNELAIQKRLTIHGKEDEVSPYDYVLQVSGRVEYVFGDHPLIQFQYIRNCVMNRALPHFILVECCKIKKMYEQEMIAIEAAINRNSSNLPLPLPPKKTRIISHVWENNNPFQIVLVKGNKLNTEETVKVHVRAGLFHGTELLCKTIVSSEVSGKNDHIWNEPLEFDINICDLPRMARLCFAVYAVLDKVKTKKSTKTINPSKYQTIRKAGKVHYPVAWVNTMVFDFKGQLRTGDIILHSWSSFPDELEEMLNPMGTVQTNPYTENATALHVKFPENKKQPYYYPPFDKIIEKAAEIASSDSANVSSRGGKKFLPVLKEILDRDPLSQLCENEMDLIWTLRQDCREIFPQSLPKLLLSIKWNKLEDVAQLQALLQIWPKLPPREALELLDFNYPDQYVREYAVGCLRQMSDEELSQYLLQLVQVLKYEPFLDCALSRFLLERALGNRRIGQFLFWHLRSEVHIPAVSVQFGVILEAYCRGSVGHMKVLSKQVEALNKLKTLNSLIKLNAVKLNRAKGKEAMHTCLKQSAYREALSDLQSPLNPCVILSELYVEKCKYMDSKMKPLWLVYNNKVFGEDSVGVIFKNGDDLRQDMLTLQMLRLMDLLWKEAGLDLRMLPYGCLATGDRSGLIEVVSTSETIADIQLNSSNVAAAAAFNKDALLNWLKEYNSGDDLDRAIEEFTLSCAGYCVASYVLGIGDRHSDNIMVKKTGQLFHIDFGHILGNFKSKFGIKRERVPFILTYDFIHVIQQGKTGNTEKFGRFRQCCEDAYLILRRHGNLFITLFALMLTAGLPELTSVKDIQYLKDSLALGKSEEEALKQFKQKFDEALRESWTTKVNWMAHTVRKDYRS
Albumin, sequence (P02768 whole entry): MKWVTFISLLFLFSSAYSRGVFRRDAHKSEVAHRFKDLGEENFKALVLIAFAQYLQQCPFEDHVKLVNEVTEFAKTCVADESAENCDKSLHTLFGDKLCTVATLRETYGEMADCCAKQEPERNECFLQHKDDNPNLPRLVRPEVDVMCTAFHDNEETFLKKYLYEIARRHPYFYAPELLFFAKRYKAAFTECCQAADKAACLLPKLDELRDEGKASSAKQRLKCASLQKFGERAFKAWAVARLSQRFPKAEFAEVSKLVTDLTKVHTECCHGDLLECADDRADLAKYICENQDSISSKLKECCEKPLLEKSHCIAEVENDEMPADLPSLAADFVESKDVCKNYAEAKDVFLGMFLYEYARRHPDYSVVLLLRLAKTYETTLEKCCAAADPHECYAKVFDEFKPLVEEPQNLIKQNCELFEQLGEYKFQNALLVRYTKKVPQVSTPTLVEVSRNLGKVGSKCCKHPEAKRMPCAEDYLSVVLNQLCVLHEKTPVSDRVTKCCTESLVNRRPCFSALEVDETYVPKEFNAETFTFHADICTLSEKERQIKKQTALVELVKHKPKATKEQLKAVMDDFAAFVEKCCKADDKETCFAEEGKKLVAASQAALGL

Row | Compound | solubility kinetic [1] | IC50 [2] | IC50 [3] | IC50 [4] | Activity [5] | logD [6] | IC50 [7]
1 | CN(C1CCN(Cc2cc3nc(-c4cnc(N)nc4)nc(N4CCOCC4)c3s2)CC1)S(C)(=O)=O | 118 µM (≈ 61.2 µg/mL) | 25.1 nM | 7.94 nM | 251 nM | 87.8% | 3.3 | 15.8 nM
2 | COCC(=O)N(C)C1CCN(Cc2cc3nc(-c4cccc5[nH]ccc45)nc(N4CCOCC4)c3s2)CC1 | 238 µM (≈ 127 µg/mL) |  | 12.6 nM | 1000 nM | 94.3% | 4.6 | 10000 nM
3 | CC(=O)N(C)C1CCN(Cc2cc3nc(-c4cccc5[nH]ccc45)nc(N4CCOCC4)c3s2)CC1 |  |  | 12.6 nM | 2000 nM | 94.5% | 4.4 | 3160 nM
4 | COCC(=O)N(C)C1CCCN(Cc2cc3nc(-c4cnc(N)nc4)nc(N4CCOCC4)c3s2)C1 (racemic) |  | 126 nM | 50.1 nM | 1580 nM |  | 2.8 | 100 nM
5 | CNC(=O)NC1CCCN(Cc2cc3nc(-c4cccc5[nH]ccc45)nc(N4CCOCC4)c3s2)C1 (racemic) |  | 2510 nM | 126 nM | 2510 nM |  | 4.1 | 3980 nM
6 | COCC(=O)N(C)C1CCN(Cc2cc3nc(-c4cccc5[nH]ncc45)nc(N4CCOCC4)c3s2)C1 (racemic) |  | 1000 nM | 79.4 nM | 5010 nM |  | 3.8 | 631 nM
7 | COCC(=O)NC1CCCN(Cc2cc3nc(-c4cnc(N)nc4)nc(N4CCOCC4)c3s2)C1 (racemic) |  | 631 nM | 316 nM | 10000 nM |  | 3 | 501 nM
8 | CC(=O)N(C)C1CCCN(Cc2cc3nc(-c4cnc(N)nc4)nc(N4CCOCC4)c3s2)C1 (racemic) |  | 100 nM | 15.8 nM | 2000 nM |  | 3.1 | 63.1 nM
9 | CS(=O)(=O)NC1CCCN(Cc2cc3nc(-c4cccc5[nH]ncc45)nc(N4CCOCC4)c3s2)C1 (racemic) |  | 1580 nM | 50.1 nM | 7940 nM |  | 4.3 | 501 nM
10 | CNC(=O)N(C)C1CCCN(Cc2cc3nc(-c4cccc5[nH]ccc45)nc(N4CCOCC4)c3s2)C1 (racemic) |  | 6310 nM | 126 nM | 10000 nM |  | 4.5 | 3160 nM
11 | CN(C1CCCN(Cc2cc3nc(-c4cnc(N)nc4)nc(N4CCOCC4)c3s2)C1)S(C)(=O)=O (racemic) |  | 25.1 nM | 5.01 nM | 1000 nM |  | 3.5 | 39.8 nM
12 | CS(=O)(=O)NC1CCN(Cc2cc3nc(-c4cnc(N)nc4)nc(N4CCOCC4)c3s2)C1 (racemic) | ≥ 491 µM | 20 nM | 12.6 nM | 158 nM | 80.9% | 2.4 | 10 nM
13 | CC(=O)N(C)C1CCN(Cc2cc3nc(-c4cnc(N)nc4)nc(N4CCOCC4)c3s2)C1 (racemic) |  | 39.8 nM | 12.6 nM | 631 nM |  | 2.8 | 20 nM
14 | COCC(=O)N(C)C1CCCN(Cc2cc3nc(-c4cccc5[nH]ccc45)nc(N4CCOCC4)c3s2)C1 (racemic) | 85 µM (≈ 45.4 µg/mL) | 2000 nM | 20 nM | 3160 nM | 95.2% | 4.8 | 3160 nM
15 | CS(=O)(=O)NC1CCCN(Cc2cc3nc(-c4cccc5[nH]ccc45)nc(N4CCOCC4)c3s2)C1 (racemic) |  | 1000 nM | 25.1 nM | 1260 nM |  | 5 | 1580 nM
16 | COCC(=O)N(C)C1CCCN(Cc2cc3nc(-c4cccc5[nH]ncc45)nc(N4CCOCC4)c3s2)C1 (racemic) |  | 3160 nM | 126 nM | 6310 nM |  | 4.3 | 794 nM

Row | Compound | solubility kinetic [1] | IC50 [2] | IC50 [3] | IC50 [4] | Activity [5] | logD [6] | IC50 [7]
17 | CS(=O)(=O)NC1CCCN(Cc2cc3nc(-c4cnc(N)nc4)nc(N4CCOCC4)c3s2)C1 (racemic) |  | 39.8 nM | 15.8 nM | 316 nM |  | 3.1 | 20 nM
18 | CC(=O)N(C)C1CCCN(Cc2cc3nc(-c4cccc5[nH]ccc45)nc(N4CCOCC4)c3s2)C1 (racemic) |  | 2510 nM | 25.1 nM | 2510 nM |  | 5 | 1580 nM
19 | CN(C1CCN(Cc2cc3nc(-c4cccc5[nH]ccc45)nc(N4CCOCC4)c3s2)C1)S(C)(=O)=O (racemic) |  | 501 nM | 10 nM | 501 nM |  | 5.1 | 631 nM
20 | CN(C1CCN(Cc2cc3nc(-c4cnc(N)nc4)nc(N4CCOCC4)c3s2)C1)S(C)(=O)=O (racemic) |  | 12.6 nM | 6.31 nM | 251 nM |  | 3.1 | 7.94 nM
21 | COCC(=O)N(C)C1CCN(Cc2cc3nc(-c4cnc(N)nc4)nc(N4CCOCC4)c3s2)C1 (racemic) | ≥ 2720 µM | 7.94 nM | 6.31 nM | 251 nM | 81.2% | 2.7 | 15.8 nM
22 | CN(C1CCN(Cc2cc3nc(-c4cccc5[nH]ncc45)nc(N4CCOCC4)c3s2)C1)S(C)(=O)=O (racemic) |  | 398 nM | 25.1 nM | 1580 nM |  | 4.6 | 126 nM
23 | CC(=O)N(C)C1CCCN(Cc2cc3nc(-c4cccc5[nH]ncc45)nc(N4CCOCC4)c3s2)C1 (racemic) |  | 501 nM | 39.8 nM | 2000 nM |  | 4.5 | 251 nM
24 | CNC(=O)N(C)C1CCCN(Cc2cc3nc(-c4cnc(N)nc4)nc(N4CCOCC4)c3s2)C1 (racemic) |  | 200 nM | 79.4 nM | 2000 nM |  | 2.9 | 79.4 nM
25 | CC(=O)N(C)C1CCN(Cc2cc3nc(-c4cccc5[nH]ncc45)nc(N4CCOCC4)c3s2)C1 (racemic) |  | 1000 nM | 20 nM | 1000 nM |  | 3.6 | 200 nM
26 | CC(=O)N(C)C1CCN(Cc2cc3nc(-c4cccc5[nH]ccc45)nc(N4CCOCC4)c3s2)C1 (racemic) | 251 µM (≈ 123 µg/mL) | 631 nM | 6.31 nM | 501 nM | 94.4% | 4.5 | 794 nM
27 | CN(C1CCCN(Cc2cc3nc(-c4cccc5[nH]ncc45)nc(N4CCOCC4)c3s2)C1)S(C)(=O)=O (racemic) |  | 794 nM | 20 nM | 2510 nM |  | 4.9 | 200 nM
28 | COCC(=O)NC1CCCN(Cc2cc3nc(-c4cccc5[nH]ncc45)nc(N4CCOCC4)c3s2)C1 (racemic) |  | 2510 nM | 100 nM | 6310 nM |  | 4.5 | 398 nM
29 | COCC(=O)N(C)C1CCN(Cc2cc3nc(-c4cccc5[nH]ccc45)nc(N4CCOCC4)c3s2)C1 (racemic) | 179 µM (≈ 93.2 µg/mL) | 1000 nM | 10 nM | 2510 nM | 94.1% |  | 3980 nM
30 | CN(C1CCCN(Cc2cc3nc(-c4cccc5[nH]ccc45)nc(N4CCOCC4)c3s2)C1)S(C)(=O)=O (racemic) |  | 501 nM | 6.31 nM | 1580 nM | 95.6% | 5.5 | 794 nM
31 | CNC(=O)NC1CCCN(Cc2cc3nc(-c4cnc(N)nc4)nc(N4CCOCC4)c3s2)C1 (racemic) |  | 158 nM | 126 nM | 2000 nM |  | 2.6 | 79.4 nM
32 | CNC(=O)NC1CCCN(Cc2cc3nc(-c4cccc5[nH]ncc45)nc(N4CCOCC4)c3s2)C1 (racemic) |  | 3160 nM | 100 nM | 7940 nM |  | 3.6 | 316 nM
